According to patent publication US20040110776A1, “Use of propentofylline to control intraocular pressure” (priority 2003, published 2004):

Assays:
human anterior segment = details: perfusion of the anterior segment; cited from earlier work
[1] = test system: MMP-3 expression in cultured human trabecular meshwork (HTM-35D) cells; assay: MMP-3 expression in cultured human trabecular meshwork (HTM-35D) cells, proMMP-3 ELISA of medium; format: cell-based; details: 72 hours; for change in MMP-3 expression in the TM cells: indicated concentration (FIG. 1, lower panel)
From the text: Propentofylline was unexpectedly discovered to stimulate the expression of metalloproteinase-3 (MMP-3; stromelysin) in cultured human trabecular meshwork cells.
Effect of Various Compounds on MMP-3 Expression in Cultured Human Trabecular Meshwork (HTM-35D) Cells
Human TM cells were isolated, characterized and cultured as described (Steely et al, The effects of dexamethasone on fibronectin expression in cultured human trabecular meshwork cells, Investigative Ophthalmology and Visual Science, 1992;33:2242-2250) They were maintained at 5% CO2 and 37° C. in a medium consisting of Dulbecco's modified Eagle medium with Glutamax I supplemented with 10% fetal bovine serum and 50 μg/mL gentamicin. Confluent cell cultures were treated with the indicated compounds at the indicated final concentration for 72 hours and the medium assayed for proMMP-3 by a commercially available ELISA assay kit. (See FIG. 1.) Abbreviations: PPF-OH is hydroxypropentofylline.

Rabbit IOP = Rabbit IOP after topical ocular dosing (pneumatonometer); format: in vivo; details: for effect on IOP of rabbits (in words): 500 μg topical (2×25 μL, 1% solution); for % Change in IOP Mean / IOP (mmHg) Mean: 500 μg topical, n = 10
Experimental: When propentofylline was tested in the rabbit for its potential effect on IOP. […] In this study, the rabbits were placed in restrainers, and IOP was determined with an Alcon Pneumatonometer after light corneal anesthesia with 0.1% proparacaine (Alcaine® diluted with physiogical saline). Following each IOP measurement, residual anesthetic was washed away with saline. After two baseline measurements, animals were dosed topically on the cornea with vehicle or propentofylline (2×25 μL, 1% solution). IOP measurements were taken at indicated intervals.

[2] = test system: IOP in ocular normotensive rabbits; details: topical instillation of 2%; cited from earlier work
lasered monkey eyes = assay: IOP in lasered (ocular hypertensive) monkey eyes; format: in vivo; details: for IOP-lowering effect, single dose: 500 μg in aqueous solution, topical, lasered eye of unanesthetized monkeys; for IOP-lowering effect after repeated doses: 500 μg twice daily, 7 consecutive days, lasered monkey eyes
Experimental: The IOP-lowering effect of propentofylline in primates was discovered when tested in ocular hypertensive monkeys. In this animal model, the IOP of cynomolgus monkeys was artificially elevated by laser-induced photocoagulation of the TM.
Top Panel: IOP-lowering effect of Propentofylline (PPF) (500 μg) in lasered monkey eyes.
These monkeys received 500 μg of propentofylline twice daily for the indicated days and the IOP was measured right after the morning dosing.
Studies were performed as described previously (Toris, et al., Aqueous humor dynamics in monkeys with laser-induced glaucoma, Journal of Ocular Pharmacology and Therapeutics, 2000;16:19-27). (See FIG. 3.)

[3] = test system: anterior segments of non-glaucomatous donor eyes; assay: Outflow in human ocular perfusion organ culture; details: 100 μM continuous perfusion, days 2 and 3 after initiation of perfusion
Experimental: In this ex vivo study, the anterior segments of non-glaucomatous donor eyes were perfused continuously with 100 μM of propentofylline.
Human ocular perfusion organ culture was performed as described (Tschumper, et al. Glycosaminoglycans of human trabecular meshwork in perfusion organ culture. Current Eye Research, 1990;9:363-369; Clark et al, Dexamethasone-induced ocular hypertension in perfusion-cultured human eyes. Investigative Ophthalmology and Visual Science 1995;36:478-489). Briefly, human cadaver eyes, 16 to 20 hours post mortem, were dissected at the equator and the lens, vitreous and iris were removed. The anterior segment of the eye, including cornea and sclera ring containing TM and ciliary body, was placed into a custom-made plexiglass culture dish and sealed in place with a plexiglass O-ring. Culture media (Dulbecco's modified Eagle medium) was placed in a reservoir and perfused through a central cannula in the bottom of the dish. The reservoir was raised to generate approximately 11 mmHg of hydrostatic pressure relative to the center of the perfused eye. The weight of the reservoir was recorded daily. […]
After a 2-4 days stabilization period, the eyes were perfused with either 100 μM propentofylline (PPF) or vehicle alone and their outflow rates monitored for is another 4 days. * represents p<0.05 by Student's t-test. […]

IOP in the rabbit = details: cited from earlier work

**Q.** With N[C@@H](Cc1c[nH]c2ccccc12)C(=O)NO [L-tryptophan hydroxamate] as the molecule, how does the “effect on outflow facility / aqueous outflow (in words)” value (human anterior segment) read?
**A.** suppressed aqueous outflow

**Q.** Which “change in MMP-3 expression in the TM cells” value (from here on “change in MMP-3 expression”) [1] does the source give for CC(=O)CCCCn1c(=O)c2c(ncn2C)n(C)c1=O [Pentoxifylline] here?
**A.** did not produce a statistically significant change

**Q.** And the “effect on IOP of rabbits (in words)” value (Rabbit IOP)?
**A.** did not significantly lower IOP

**Q.** And the “% Change in IOP Mean” value (Rabbit IOP; 0 hour after treatment)?
**A.** 0.0%

**Q.** And the “IOP (mmHg) Mean” value (Rabbit IOP; 0 hour after treatment)?
**A.** 23.8 mmHg

**Q.** What about the “% Change in IOP Mean” value (Rabbit IOP; 1 hour after treatment) of the same molecule?
**A.** −8.9%

**Q.** And the “IOP (mmHg) Mean” value (Rabbit IOP; 1 hour after treatment)?
**A.** 21.6 mmHg

**Q.** And the “% Change in IOP Mean” value (Rabbit IOP; 3 hours after treatment)?
**A.** −1.8%

**Q.** What about the “IOP (mmHg) Mean” value (Rabbit IOP; 3 hours after treatment) of the same molecule?
**A.** 23.1 mmHg

**Q.** What about the “% Change in IOP Mean” value (Rabbit IOP; 5 hours after treatment) of the same molecule?
**A.** 17.5%

**Q.** And the “IOP (mmHg) Mean” value (Rabbit IOP; 5 hours after treatment)?
**A.** 27.8 mmHg

**Q.** And the “% Change in IOP Mean” value (Rabbit IOP; 7 hours after treatment)?
**A.** 15.9%

**Q.** And the “IOP (mmHg) Mean” value (Rabbit IOP; 7 hours after treatment)?
**A.** 27.3 mmHg

**Q.** What about the “effect on IOP” value [2] of the same molecule?
**A.** slight decrease in IOP

**Q.** With CCCn1cnc2c1c(=O)n(CCCCC(C)=O)c(=O)n2C [Propentofylline, 3-methyl-1-(5′-oxohexyl)-7-propyl-xanthine] as the molecule, how does the “IOP-lowering effect, single dose” value (lasered monkey eyes) read?
**A.** clearly reduced IOP at 1 hour

**Q.** And the “IOP-lowering effect, single dose” value (lasered monkey eyes; listed as propentofylline)?
**A.** dramatic decrease in IOP

**Q.** What about the “IOP-lowering effect after repeated doses” value (lasered monkey eyes) of the same molecule?
**A.** ocular hypotensive even after repeated doses

**Q.** What about the “IOP-lowering effect after repeated doses” value (lasered monkey eyes; listed as propentofylline) of the same molecule?
**A.** persisted even after 7 consecutive days

**Q.** And the tolerability (lasered monkey eyes; monkeys, 500 μg topical)?
**A.** well tolerated

**Q.** What about the “outflow rates compared to vehicle-treated eyes” value [3] of the same molecule?
**A.** significantly increased

**Q.** And the “expression of MMP-3” value ([1]; 100 μM, cultured human trabecular meshwork cells)?
**A.** significantly increased the expression of MMP-3

**Q.** And the “effect on IOP of rabbits (in words)” value (Rabbit IOP)?
**A.** did not affect the IOP of rabbits

**Q.** What about the tolerability (Rabbit IOP; 500 μg topical onto the eye) of the same molecule?
**A.** well tolerated

**Q.** What about the “% Change in IOP Mean” value (Rabbit IOP; 0 hour after treatment) of the same molecule?
**A.** 0.0%

**Q.** What about the “IOP (mmHg) Mean” value (Rabbit IOP; 0 hour after treatment) of the same molecule?
**A.** 23.5 mmHg

**Q.** And the “% Change in IOP Mean” value (Rabbit IOP; 1 hour after treatment)?
**A.** −10.0%

**Q.** And the “IOP (mmHg) Mean” value (Rabbit IOP; 1 hour after treatment)?
**A.** 21.0 mmHg

**Q.** And the “% Change in IOP Mean” value (Rabbit IOP; 3 hours after treatment)?
**A.** 1.3%

**Q.** What about the “IOP (mmHg) Mean” value (Rabbit IOP; 3 hours after treatment) of the same molecule?
**A.** 23.6 mmHg

**Q.** And the “% Change in IOP Mean” value (Rabbit IOP; 5 hours after treatment)?
**A.** 1.1%

**Q.** What about the “IOP (mmHg) Mean” value (Rabbit IOP; 5 hours after treatment) of the same molecule?
**A.** 23.5 mmHg

**Q.** What about the “% Change in IOP Mean” value (Rabbit IOP; 7 hours after treatment) of the same molecule?
**A.** 4.7%

**Q.** What about the “IOP (mmHg) Mean” value (Rabbit IOP; 7 hours after treatment) of the same molecule?
**A.** 24.0 mmHg

**Q.** For OCCN(CCO)c1nc(N2CCCCC2)c2nc(N(CCO)CCO)nc(N3CCCCC3)c2n1 [dipyridamole], which “change in MMP-3 expression” value [1] is on record?
**A.** did not produce a statistically significant change

**Q.** For CCCn1cnc2c1c(=O)n(CCCCC(C)O)c(=O)n2C (stereo not drawn) [hydroxy-propentofylline], which “change in MMP-3 expression” value [1] is on record?
**A.** did not produce a statistically significant change

**Q.** With CC(C)OC(=O)CCC/C=C\C[C@@H]1[C@@H](CC[C@@H](O)CCc2ccccc2)[C@H](O)C[C@@H]1O [latanoprost] as the molecule, how does the “effect on IOP in the rabbit” value (IOP in the rabbit) read?
**A.** no measurable effect on IOP

**Q.** Which “effect on outflow facility / aqueous outflow (in words)” value (human anterior segment) does the source give for CN(C)c1ccc(O)c2c1C[C@H]1C[C@H]3[C@H](N(C)C)C(O)=C(C(N)=O)C(=O)[C@@]3(O)C(O)=C1C2=O [minocylcine] here?
**A.** suppressed aqueous outflow

**Q.** Which “effect on IOP in the rabbit” value (IOP in the rabbit) does the source give for CC[C@@H]1C(=O)OC[C@@H]1Cc1cncn1C [pilocarpine] here?
**A.** no measurable effect on IOP

B1: interleukin-1α: cytokine known to increase the expression of matrix metalloproteinases in the TM (protein, UniProt P01583 113-271, looked up)
Interleukin-1 alpha: SAPFSFLSNVKYNFMRIIKYEFILNDALNQSIIRANDQYLTAAALHNLDEAVKFDMGAYKSSKDDAKITVILRISKTQLYVTAQDEDQPVLLKEMPEIPKTITGSETNLLFFWETHGTKNYFTSVAHPNLFIATKQDYWVCLAGGPPSITDFQILENQA
**Q.** With B1 as the molecule, how does the “effect on outflow facility / aqueous outflow (in words)” value (human anterior segment) read?
**A.** augmented the outflow facility
